From PMC9106035, “Synthesis, X-ray Structure and Biological Studies of New Self-Assembled Cu(II) Complexes Derived from s-Triazine Schiff Base Ligand” (Molecules, 2022)
Values after ≈ are worked out from the molar mass of the structure shown.

Assays:
[1] = system: lung carcinoma A-549 cell line; test: Anticancer activity, MTT viability assay; format: cell-based; details: for Inhibitory % / Viability %: Table S8; for SI = CC50/IC50: CC50 (MRC-5) / IC50 (A-549)
Procedure: The studied compounds were examined for their anticancer activity against the lung carcinoma A-549 cell line.
(§1) Method S4 Evaluation of Cytotoxic activity
(§2) The cells were propagated in Dulbecco’s modified Eagle’s medium (DMEM) supplemented with 10% heat-inactivated fetal bovine serum, 1 % L-glutamine, HEPES buffer and 50µg/mL Gentamycin. All cells were maintained at 37 °C in a humidified atmosphere with 5% CO2 and were subcultured tw o times a week.
(§3) Cytotoxicity evaluation using viability assay
(§4) For cytotoxicity assay, the cells were seeded in 96-well plate at a cell concentration of 1×10^4 cells per well in 100µl of growth medium. Fresh medium containing different concentrations of the test sample was added after 24 h of seeding. Serial two-fold dilutions of the tested chemical compound were added to confluent cell monolayers dispensed into 96-well, flat-bottomed microtiter plates (Falcon, NJ, USA) using a multichannel pipette. The microtiter plates were incubated at 37 °C in a humidified incubator with 5% CO2 for a period of 24 h. Three wells were used for each concentration of the test sample. Control cells were incubated without test sample and with or without DMSO. The little percentage of DMSO present in the […]
(§5) cells for at 37°C, for 24 h, the viabl e cells yield was determined by the MTT test.
(§6) Briefly, the media was removed from the 96 well plate and replaced with 100 µL of fresh culture DMEM m edium without phenol red then 10 µL of the 12 mM MTT stock solution (5 mg of MTT in 1 mL of PBS) to each well including the untreated controls. The 96 well plates were then incubated at 37°C and 5% CO2 for 4 hours. An 85 µL aliquot of the media was removed from t he wells, and 50 µL of DMSO was added to each well and mixed thoroughly with the pipette and incubated at 37°C for 10 min. Then, the optical density was measured at 590 nm with the microplate reader (SunRise, TECAN, Inc, USA) to determine the number of viable cells and the percentage of viability was calculat ed as [(ODt/ODc)]x100% where ODt i s the mean optical density of wells treated with the tested s ample and ODc is the mean optical density of untreated cells. The relation between surviving cells and drug concentration is plotted to get the survival curve of each tumor cell line after treatment with the specified compound. The 50% inhibitory concentration (IC50), the concentration required to cause t oxic effects in 50% of intact cells, was estimated from graphic plots of the dose response curve for each conc. using Graphpad Prism software (San Diego, […]

[2] = DPPH radical scavenging assay; format: biochemical; details: for IC50 (DPPH scavenging): antioxidant activity
Procedure: The studied Cu(II) complexes and the free ligands were assessed for their antioxidant activity levels using an α,α-diphenyl-β-picrylhydrazyl (DPPH) scavenging assay, and the results are given in Table 7. […] The results indicated better antioxidant activity for DMAT than for DMOHT, indicating the effect of the substituent at the phenyl moiety on the antioxidant activity level of the free ligand. […] On the other hand, the Cu(II) complexes have improved levels of antioxidant activity compared to the free ligands.
Method S3 DPPH Radical Scavenging Activity:
Freshly prepared (0.004 %w/v) methanol solution of 2,2-diphenyl-1-pi crylhydrazyl (DPPH) radical was prepared and stored at 10 °C in dark place. A methanolic solution of the test compound was prepared using the same procedure. A 40 uL aliquot of the methanol solution was added to 3mL of DPPH solution. Absorbance measurements were recorded immediately with a UV-visible spectrophotometer (Milton Roy, Spectronic 1201). The decrease in absorbance at 515 nm was determined continuously, with data being recorded at 1 min intervals until the absorbance stabilized (16 min). The absorbance of the DPPH radical without antioxidant (control) and the reference compound ascorbic acid were also measured.
All the determinations were performed in three replicates and averaged. The percentage inhibition (PI) of the DPPH radical was calculated according to the […]
PI = [{(AC- AT)/ AC} x 100] (1)
Where AC = Absorbance of the control at t = 0 min and AT = absorbance of the sample+DPPH at t = 16 min. The 50% inhibitory concentration (IC50), the concentration required t o inhibit DPPH radical by 50%, was estimated from graphic plots of the dose respons e curve.

[3] = system: normal human lung fibroblast MRC-5 cells; test: Cytotoxic activity on normal cells, MTT viability assay; format: cell-based; details: for Inhibitory % / Viability %: Table S13
Procedure: In this regard, the selectivity index (SI) was calculated as the ratio of cytotoxic effect on the normal cell line to the cytotoxic effect on the cancer cell line.
as §1, §2, §3, §4, §5, §6

CC(=NNc1nc(N2CCOCC2)nc(N2CCOCC2)n1)c1ccccc1[O-].CC(=O)[O-].[Cu+2] [Complex 2, [Cu(DMOT)(CH3COO)]]
Inhibitory % ([1]; A-549, sample conc. 1.9 µM): 0%
Viability % ([1]; A-549, sample conc. 1.9 µM): 100%
Inhibitory % ([1]; A-549, sample conc. 3.8 µM): 2.84%
Viability % ([1]; A-549, sample conc. 3.8 µM): 97.16%
Inhibitory % ([1]; A-549, sample conc. 7.5 µM): 10.59%
Viability % ([1]; A-549, sample conc. 7.5 µM): 89.41%
Inhibitory % ([1]; A-549, sample conc. 15.0 µM): 21.88%
Viability % ([1]; A-549, sample conc. 15.0 µM): 78.12%
Inhibitory % ([1]; A-549, sample conc. 29.9 µM): 40.57%
Viability % ([1]; A-549, sample conc. 29.9 µM): 59.43%
Inhibitory % ([1]; A-549, sample conc. 60.0 µM): 58.63%
Viability % ([1]; A-549, sample conc. 60.0 µM): 41.37%
Inhibitory % ([1]; A-549, sample conc. 120.0 µM): 71.3%
Viability % ([1]; A-549, sample conc. 120.0 µM): 28.70%
Inhibitory % ([1]; A-549, sample conc. 239.9 µM): 83.57%
Viability % ([1]; A-549, sample conc. 239.9 µM): 16.43%
Inhibitory % ([1]; A-549, sample conc. 479.8 µM): 92.15%
Viability % ([1]; A-549, sample conc. 479.8 µM): 7.85%
Inhibitory % ([1]; A-549, sample conc. 959.6 µM): 96.38%
Viability % ([1]; A-549, sample conc. 959.6 µM): 3.62%
SI = CC50/IC50 [1]: 0.72
DPPH Scavenging % ([2]; Conc. 2.5 μg/mL): 9.39%
DPPH Scavenging % ([2]; Conc. 5 μg/mL): 17.66%
DPPH Scavenging % ([2]; Conc. 10 μg/mL): 36.52%
DPPH Scavenging % ([2]; Conc. 20 μg/mL): 49.08%
DPPH Scavenging % ([2]; Conc. 40 μg/mL): 67.84%
DPPH Scavenging % ([2]; Conc. 80 μg/mL): 78.62%
DPPH Scavenging % ([2]; Conc. 160 μg/mL): 83.14%
DPPH Scavenging % ([2]; Conc. 320 μg/mL): 88.03%
DPPH Scavenging % ([2]; Conc. 640 μg/mL): 92.15%
DPPH Scavenging % ([2]; Conc. 1280 μg/mL): 94.54%
IC50 (DPPH scavenging) [2]: 20.93 ± 0.91 µg/mL
Inhibitory % ([3]; MRC-5, sample conc. 1.9 µM): 0%
Viability % ([3]; MRC-5, sample conc. 1.9 µM): 100%
Inhibitory % ([3]; MRC-5, sample conc. 3.8 µM): 0%
Viability % ([3]; MRC-5, sample conc. 3.8 µM): 100%
Inhibitory % ([3]; MRC-5, sample conc. 7.5 µM): 1.29%
Viability % ([3]; MRC-5, sample conc. 7.5 µM): 98.71%
Inhibitory % ([3]; MRC-5, sample conc. 15.0 µM): 7.13%
Viability % ([3]; MRC-5, sample conc. 15.0 µM): 92.87%
Inhibitory % ([3]; MRC-5, sample conc. 29.9 µM): 13.76%
Viability % ([3]; MRC-5, sample conc. 29.9 µM): 86.24%
Inhibitory % ([3]; MRC-5, sample conc. 60.0 µM): 32.82%
Viability % ([3]; MRC-5, sample conc. 60.0 µM): 67.18%
Inhibitory % ([3]; MRC-5, sample conc. 120.0 µM): 57.65%
Viability % ([3]; MRC-5, sample conc. 120.0 µM): 42.35%
Inhibitory % ([3]; MRC-5, sample conc. 239.9 µM): 72.02%
Viability % ([3]; MRC-5, sample conc. 239.9 µM): 27.98%
Inhibitory % ([3]; MRC-5, sample conc. 479.8 µM): 84.79%
Viability % ([3]; MRC-5, sample conc. 479.8 µM): 15.21%
Inhibitory % ([3]; MRC-5, sample conc. 959.6 µM): 94.26%
Viability % ([3]; MRC-5, sample conc. 959.6 µM): 5.74%
CC50 ([3]; MRC-5 cells, 24 h, MTT): 101 µM

CC(=NNc1nc(N2CCOCC2)nc(N2CCOCC2)n1)c1ccccc1N [DMAT, 2-(1-(2-(4,6-dimorpholino-1,3,5-triazin-2-yl)hydrazono)ethyl)aniline]
SI = CC50/IC50 [1]: 1.30
viability at 2.5 µM ([1]; Homo sapiens, A549, A-549, sample conc. 2.5 µM, Table S5): 100%
inhibition at 2.5 µM ([1]; Homo sapiens, A549, A-549, sample conc. 2.5 µM, Table S5, read-out: Inhibitory %): 0%
viability at 5 µM ([1]; Homo sapiens, A549, A-549, sample conc. 5.0 µM, Table S5): 100%
inhibition at 5 µM ([1]; Homo sapiens, A549, A-549, sample conc. 5.0 µM, Table S5, read-out: Inhibitory %): 0%
viability at 9.8 µM ([1]; Homo sapiens, A549, A-549, sample conc. 9.8 µM, Table S5): 100%
inhibition at 9.8 µM ([1]; Homo sapiens, A549, A-549, sample conc. 9.8 µM, Table S5, read-out: Inhibitory %): 0%
viability at 19.6 µM ([1]; Homo sapiens, A549, A-549, sample conc. 19.6 µM, Table S5): 100%
inhibition at 19.6 µM ([1]; Homo sapiens, A549, A-549, sample conc. 19.6 µM, Table S5, read-out: Inhibitory %): 0%
viability at 39.1 µM ([1]; Homo sapiens, A549, A-549, sample conc. 39.1 µM, Table S5): 100%
inhibition at 39.1 µM ([1]; Homo sapiens, A549, A-549, sample conc. 39.1 µM, Table S5, read-out: Inhibitory %): 0%
viability at 78.4 µM ([1]; Homo sapiens, A549, A-549, sample conc. 78.4 µM, Table S5): 100%
inhibition at 78.4 µM ([1]; Homo sapiens, A549, A-549, sample conc. 78.4 µM, Table S5, read-out: Inhibitory %): 0%
viability at 156.8 µM ([1]; Homo sapiens, A549, A-549, sample conc. 156.8 µM, Table S5): 98%
inhibition at 156.8 µM ([1]; Homo sapiens, A549, A-549, sample conc. 156.8 µM, Table S5, read-out: Inhibitory %): 1.96%
viability at 313.7 µM ([1]; Homo sapiens, A549, A-549, sample conc. 313.7 µM, Table S5): 82.7%
inhibition at 313.7 µM ([1]; Homo sapiens, A549, A-549, sample conc. 313.7 µM, Table S5, read-out: Inhibitory %): 17.3%
viability at 627.4 µM ([1]; Homo sapiens, A549, A-549, sample conc. 627.4 µM, Table S5): 39.6%
inhibition at 627.4 µM ([1]; Homo sapiens, A549, A-549, sample conc. 627.4 µM, Table S5, read-out: Inhibitory %): 60.4%
viability at 1254.8 µM ([1]; Homo sapiens, A549, A-549, sample conc. 1254.8 µM, Table S5): 17.6%
inhibition at 1254.8 µM ([1]; Homo sapiens, A549, A-549, sample conc. 1254.8 µM, Table S5, read-out: Inhibitory %): 82.4%
IC50 ([1]; Homo sapiens, A549, A-549 cells, 24 h, MTT): 551 µM
DPPH Scavenging % ([2]; Conc. 2.5 μg/mL): 20.79%
DPPH Scavenging % ([2]; Conc. 5 μg/mL): 28.65%
DPPH Scavenging % ([2]; Conc. 10 μg/mL): 35.17%
DPPH Scavenging % ([2]; Conc. 20 μg/mL): 54.23%
DPPH Scavenging % ([2]; Conc. 40 μg/mL): 70.89%
DPPH Scavenging % ([2]; Conc. 80 μg/mL): 79.28%
DPPH Scavenging % ([2]; Conc. 160 μg/mL): 86.59%
DPPH Scavenging % ([2]; Conc. 320 μg/mL): 91.37%
DPPH Scavenging % ([2]; Conc. 640 μg/mL): 94.08%
DPPH Scavenging % ([2]; Conc. 1280 μg/mL): 95.31%
IC50 (DPPH scavenging) [2]: 17.83 ± 0.65 µg/mL (≈ 44.7 µM)
inhibition at 2.5 µM ([3]; Homo sapiens, MRC5, MRC-5, sample conc. 2.5 µM, Table S10, read-out: Inhibitory %): 0%
inhibition at 5 µM ([3]; Homo sapiens, MRC5, MRC-5, sample conc. 5.0 µM, Table S10, read-out: Inhibitory %): 0%
inhibition at 9.8 µM ([3]; Homo sapiens, MRC5, MRC-5, sample conc. 9.8 µM, Table S10, read-out: Inhibitory %): 0%
inhibition at 19.6 µM ([3]; Homo sapiens, MRC5, MRC-5, sample conc. 19.6 µM, Table S10, read-out: Inhibitory %): 0%
inhibition at 39.1 µM ([3]; Homo sapiens, MRC5, MRC-5, sample conc. 39.1 µM, Table S10, read-out: Inhibitory %): 0%
inhibition at 78.4 µM ([3]; Homo sapiens, MRC5, MRC-5, sample conc. 78.4 µM, Table S10, read-out: Inhibitory %): 0%
inhibition at 156.8 µM ([3]; Homo sapiens, MRC5, MRC-5, sample conc. 156.8 µM, Table S10, read-out: Inhibitory %): 0.15%
inhibition at 313.7 µM ([3]; Homo sapiens, MRC5, MRC-5, sample conc. 313.7 µM, Table S10, read-out: Inhibitory %): 10.7%
inhibition at 627.4 µM ([3]; Homo sapiens, MRC5, MRC-5, sample conc. 627.4 µM, Table S10, read-out: Inhibitory %): 46.1%
inhibition at 1254.8 µM ([3]; Homo sapiens, MRC5, MRC-5, sample conc. 1254.8 µM, Table S10, read-out: Inhibitory %): 73.9%
